Reference: patent US10973840B2, “Methods of sensitizing tumor cells to weak base chemotherapeutic drugs” (SOCPRA SCIENCES SANTÉ ET HUMAINES S.E.C., priority 2017, dated 2021)
Where two headings read alike, the source gives them in different places.

Columns and labels:
Type in all cases: cell-based, human
MDA-MB-231 cells [1] = experiment: Intracellular pH measurement (HPTS/SNARF-1) by confocal microscopy, MDA-MB-231; settings: MDA-MB-231, 1% O2, 4 h; for effect on hypoxia-induced intravesicular acidification: Baf 100 nM, Cq 10 μM
Protocol: (§1) The pH sensing ratiometric dyes SNARF-1 and HPTS (Life Technologies) were used simultaneously for pH measurement of both cytoplasmic (C-SNARF-1) and endosomal/lysosomal (HPTS) compartments as previously described^30. Briefly, cells were cultured in 35 mm petri dishes (BD Biosciences) and used at 50% confluence. For endocytic labeling, cells were incubated overnight with HPTS (1 mM), washed, followed by a 20-min incubation with SNARF-1 (5 μM) to label the cytoplasmic compartment. Living cells were analyzed using an Olympus Fluoview™ FV1000 confocal microscope. Fluorescence emissions of both pH-sensing probes were recorded and subsequently analyzed as described^30.

MDA-MB-231 cells [2] = experiment: Intracellular localization of Dox by confocal live-cell imaging, MDA-MB-231; settings: MDA-MB-231, 1% O2; Cq 10 μM, Baf 100 nM
Protocol: (§2) Cells were cultured in 25 mm-diameter glass coverslips (Thermo Fisher Scientific) and incubated under various conditions (as indicated in the FIG. legends). Cells were then incubated for 2 h in a medium containing Dox (2 μM). After the incubation period, cells were washed to remove excess Dox and left in drug-free media for 10 min. […] Coverslips were mounted on glass slides and placed on a 37° C. warmed stage of an Olympus Fluoview™ FV1000 (Olympus, Tokyo, Japan) confocal laser scanning microscope. Dox was excited with a green helium neon laser (543 nm) and emitted fluorescence intensity was measured. Images were acquired on the same day, typically from 10-20 cells of similar size from each experimental condition, using identical instrument settings.

HT-1080 cells [3] = experiment: Intracellular localization of Dox by confocal live-cell imaging, HT-1080; settings: for effect on hypoxia-induced Dox sequestration within endosomes: HT-1080, 1% O2, Cq 10 μM, Baf 100 nM
Protocol: as §2

HT-1080 cells [4] = experiment: Intracellular pH measurement (HPTS/SNARF-1) by confocal microscopy, HT-1080; settings: HT-1080, 1% O2, 4 h; for effect on hypoxia-induced intravesicular acidification: Baf 100 nM, Cq 10 μM
Protocol: as §1

[5] = test system: MDA-MB-231 breast cancer cells; experiment: MTT cell viability assay, MDA-MB-231; settings: for IC50: Homo sapiens, MDA-MB-231, 72 h; for Fold change: MDA-MB-231, IC50 at 1% O2 to IC50 at 21% O2
Protocol: (§3) Cells (5×10^3) were cultured in 96-well plates and pre-incubated under 21% O2 or 1% O2 for 4 h following the addition of drugs for 72 h. Cell viability was measured using the 3-(4,5-dimethylthiazol-2-yl)-2,5-diphenyltetrazolium bromide (MTT) dye (Life Technologies) according to manufacturer's instructions. Because hypoxic conditions may affect the reduction of MTT to formazan, incubation of all cell cultures with MTT were performed under normoxic conditions. Each experiment was performed in triplicate and at least three independent experiments were performed. Log-scale dose-response data were plotted on a graph and a three-parameter non-linear regression was applied to determine IC50 values. For calculation of the IC50s, both normoxic and hypoxic drug-treated samples were normalized with their untreated counterpart.
(§4) To assess the role of pH in hypoxia-induced resistance to anthracyclines, the human breast cancer MDA-MB-231 and fibrosarcoma HT-1080 cell lines were incubated in the presence or absence of the commonly used anthracycline drugs, doxorubicin (Dox), daunorubicin (Dau) and the anthracycline analog drug, mitoxantrone (Mtx), under hypoxic (1% O2) or normoxic (21% O2) conditions for 72 hours. Cell viability was then assessed using the MTT assay. The impact of extracellular pH on Dox uptake by HT-1080 was also assessed.

[6] = test system: HT-1080 fibrosarcoma cells; experiment: MTT cell viability assay, HT-1080; settings: for Fold change: HT-1080, IC50 at 1% O2 to IC50 at 21% O2; for increase in resistance toward the drug by hypoxia: HT-1080 cells (so in the source), 1% O2 vs 21% O2; for IC50: Homo sapiens, HT-1080, 72 h
Protocol: as §3, §4

NHE6-RACK1 interaction = experiment: Co-immunoprecipitation of NHE6 with RACK1 in HT-1080; settings: HT-1080, PDBu 100 nM
Protocol: Cells were lysed on ice in NP-40-containing buffer (50 mM Tris-HCl pH 8.0, 150 mM NaCl, 1% NP-40, 5 mM EDTA, phosphatase and protease inhibitors). Cell lysates were centrifuged at 13,000 rpm at 4° C. and protein concentration determined using the BCA protein assay (Thermo Fisher Scientific). After a pre-clearing step with protein A/G-agarose beads (GE Healthcare), protein complexes were immunoprecipitated overnight at 4° C. Samples were incubated in SDS-loading buffer for 30 minutes at room temperature to avoid transmembrane protein aggregates upon heating in a boiling water bath. Proteins were separated by SDS-PAGE electrophoresis, transferred to a PVDF membrane and immunoblotting was performed as described, using anti-NHE6 (1:1000), anti-NHE9 (1:1000) anti-RACK1 (1:2000), anti-tubulin (1:5000), anti-actin (1:5000) anti-HA (1:1000), anti-PKC (1:200), anti-phospho PKC substrate (1:1000), anti-LAMP2 (1:200), anti-P-glycoprotein (1:200) and HRP-conjugated secondary antibodies (1/10 000)^66.

NHE6 = NHE6 localization (cell-surface biotinylation, EEA1 immunofluorescence) in HT-1080
Protocol: Biotinylation steps were performed at […] Cells were grown on circular 15-mm diameter glass coverslips (Thermo Fisher Scientific) and incubated at 21% or 1% O2. Cells were then washed with PBS containing 1 mM CaCl2 and 0.5 mM MgCl2 (PBSCM) and incubated for 5 min with 0.3 mg/ml of EZ-Link Sulfo-NHS-SS-Biotin (Pierce) in PBSCM. Unreacted biotin was quenched using 100 mM glycine. Cells were fixed for 10 min at room temperature using 1% PFA in PBS. Prior to staining, cells were blocked with 5% of BSA for 1 h at room temperature. Biotinylated cells were stained with 5 μg/ml Streptavidin Texas Red (Invitrogen) for 1 h at 4° C. Coverslips were washed and mounted on a microscope slide using Vectashield mounting media (Vector labs).
Cultured cells were fixed with 1% PFA for 10 min at room temperature, permeabilized with saponin (0.05% in PBS) for 20 min, and blocked with 2% BSA in PBS for 30 min. Cells were then incubated with the appropriate primary and secondary antibodies as follows: anti-EEA1 (1/500), anti-Rab7 (1/500) and fluorophore-conjugated secondary antibodies (1/1000). Images were recorded using an Olympus Fluoview™ FV1000 confocal microscope using a 63× oil immersion objective.

CO/C1=C\C(C)=C\[C@@H](C)[C@@H](O)[C@@H](C)C/C(C)=C/C=C/[C@H](OC)[C@@H]([C@@H](C)[C@@H](O)[C@H](C)[C@@]2(O)C[C@@H](O)[C@H](C)[C@@H](C(C)C)O2)OC1=O [Baf, bafilomycin A1]
effect on hypoxia-induced intravesicular acidification (MDA-MB-231 cells [1]): prevented
effect on hypoxia-induced Dox sequestration within endosomes (MDA-MB-231 cells [2]): abolished hypoxia-induced Dox sequestration within endosomes
effect on hypoxia-induced Dox sequestration within endosomes (HT-1080 cells [3]): abolished hypoxia-induced Dox sequestration within endosomes
effect on hypoxia-induced intravesicular acidification (HT-1080 cells [4]): prevented

COc1cccc2c1C(=O)c1c(O)c3c(c(O)c1C2=O)C[C@@](O)(C(C)=O)C[C@@H]3O[C@H]1C[C@H](N)[C@H](O)[C@H](C)O1 [Dau, daunorubicin]
IC50 ([5]; read-out: IC50 of anthracyclines, MDA-MB-231, 1% O2, 72 h): 921 nM
IC50 ([5]; read-out: IC50 of anthracyclines, MDA-MB-231, 21% O2, 72 h): 199 nM
Fold change [5]: 4.7 fold
Fold change [6]: 8.1 fold
increase in resistance toward the drug by hypoxia [6]: 4.7 fold
IC50 ([6]; read-out: IC50 of anthracyclines, HT-1080, 1% O2, 72 h): 814 nM
IC50 ([6]; read-out: IC50 of anthracyclines, HT-1080, 21% O2, 72 h): 102 nM

O=C1c2c(O)ccc(O)c2C(=O)c2c(NCCNCCO)ccc(NCCNCCO)c21 [Mtx, mitoxantrone]
IC50 ([5]; MDA-MB-231, 1% O2, 72 h, read-out: IC50 of anthracyclines): 752 nM
IC50 ([5]; MDA-MB-231, 21% O2, 72 h, read-out: IC50 of anthracyclines): 152 nM
Fold change [5]: 5.0 fold
Fold change [6]: 4.9 fold
increase in resistance toward the drug by hypoxia [6]: 5.0 fold
IC50 ([6]; HT-1080, 1% O2, 72 h, read-out: IC50 of anthracyclines): 451 nM
IC50 ([6]; HT-1080, 21% O2, 72 h, read-out: IC50 of anthracyclines): 93.5 nM

CCCC(=O)O[C@@H]1[C@@H](C)[C@@]2(O)[C@@H](C=C(CO)C[C@]3(O)C(=O)C(C)=C[C@@H]23)[C@@H]2C(C)(C)[C@]12OC(=O)CCC [PDBu, phorbol-12,13-dibutyrate]
association of NHE6 with RACK1 (NHE6-RACK1 interaction): promoted
relocalization of NHE6 from endosomes to the plasma membrane (NHE6; HT-1080, normoxia, PDBu 100 nM): promoted

CCN(CC)CCCC(C)Nc1ccnc2cc(Cl)ccc12 (centres unmarked) [Cq, chloroquine]
effect on hypoxia-induced intravesicular acidification (MDA-MB-231 cells [1]): prevented
effect on hypoxia-induced Dox sequestration within endosomes (MDA-MB-231 cells [2]): abolished hypoxia-induced Dox sequestration within endosomes
effect on hypoxia-induced Dox sequestration within endosomes (HT-1080 cells [3]): abolished hypoxia-induced Dox sequestration within endosomes
effect on hypoxia-induced intravesicular acidification (HT-1080 cells [4]): prevented

CCN(c1nc(N)c(C(=O)NC(=N)N)nc1Cl)C(C)C [EIPA]
effect on hypoxia-induced increase in cytosolic pH (MDA-MB-231 cells [1]; EIPA 25 μM): prevented
effect on hypoxia-induced increase in cytosolic pH (HT-1080 cells [4]; EIPA 25 μM): prevented

CN(C)CCCn1cc(C2=C(c3c[nH]c4ccccc34)C(=O)NC2=O)c2ccccc21 [GF109203X]
Dox within the nucleus (HT-1080 cells [3]; HT-1080, 1% O2, PKC inhibition (GF-109203x 200 nM)): promoted the accumulation of Dox in the nuclear compartment
endosomal/lysosomal pH under hypoxic conditions (HT-1080 cells [4]; PKC inhibition (GF-109203x 200 nM)): partial recovery of normal pH values
hypoxia-induced NHE6 relocalization (NHE6; HT-1080, 1% O2, 4 h, GF-109203x 200 nM): blocked
